Reference: publication PMC4849433, “Phloem Proteomics Reveals New Lipid-Binding Proteins with a Putative Role in Lipid-Mediated Signaling” (Frontiers in Plant Science, 2016)

Experiments:
Assay in all cases: liposome co-sedimentation with anti-His Western blot; protein-lipid overlay
Type in all cases: binding
[1] = biological target: T1, PLAFP (phloem lipid-associated family protein) (Arabidopsis thaliana, UniProt O65660); conditions: pH 7.0, 0.1 M NaCl, 30 °C, 30 min; 1 μg protein; PtdOH mixed into PtdCho liposomes; figure modified from Benning et al. 2012 (same laboratory)
T1 construct: gene PLAT1; 23-residue predicted signal peptide removed; pET15b His tag; E. coli OrigamiB(DE3)pLysS; HisLink purified
T1 sequence (O65660 24-181): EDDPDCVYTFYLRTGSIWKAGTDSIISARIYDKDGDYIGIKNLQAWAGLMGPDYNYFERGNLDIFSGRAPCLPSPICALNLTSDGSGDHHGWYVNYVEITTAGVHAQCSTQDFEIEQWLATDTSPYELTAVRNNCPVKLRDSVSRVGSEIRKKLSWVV

[2] = biological target: T2, PIG-P-like protein (Arabidopsis thaliana, UniProt A0A1P8B1E2); conditions: pH 7.0, 0.1 M NaCl, 30 °C, 30 min; 1 μg protein; lipid in liposomes
T2 construct: gene TRM18; coding region, no signal peptide; pET15b His tag; E. coli BL21(DE3)pLysS; Ni-NTA purified; 50 kDa
T2 sequence (A0A1P8B1E2 1-464): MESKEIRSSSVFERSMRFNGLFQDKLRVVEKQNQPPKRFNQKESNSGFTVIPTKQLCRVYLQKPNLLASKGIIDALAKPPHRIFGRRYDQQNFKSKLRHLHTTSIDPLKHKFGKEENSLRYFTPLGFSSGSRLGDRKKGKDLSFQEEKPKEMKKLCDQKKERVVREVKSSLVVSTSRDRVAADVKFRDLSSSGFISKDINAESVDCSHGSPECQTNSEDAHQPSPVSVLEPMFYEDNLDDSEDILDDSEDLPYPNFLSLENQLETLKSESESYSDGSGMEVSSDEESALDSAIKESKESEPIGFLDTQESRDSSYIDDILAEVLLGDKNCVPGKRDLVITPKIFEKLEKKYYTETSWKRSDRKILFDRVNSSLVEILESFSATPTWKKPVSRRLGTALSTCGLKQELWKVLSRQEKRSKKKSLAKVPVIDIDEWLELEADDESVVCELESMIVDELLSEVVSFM

[3] = biological target: T3, GDSL-lipase (Arabidopsis thaliana, UniProt Q9C7N5); conditions: pH 7.0, 0.1 M NaCl, 30 °C, 30 min; 10 μg protein; lipid in liposomes
T3 construct: gene At1g29660; 26-residue predicted signal peptide removed; pET15b His tag; E. coli BL21(DE3)pLysS; Ni-NTA purified
T3 sequence (Q9C7N5 27-364): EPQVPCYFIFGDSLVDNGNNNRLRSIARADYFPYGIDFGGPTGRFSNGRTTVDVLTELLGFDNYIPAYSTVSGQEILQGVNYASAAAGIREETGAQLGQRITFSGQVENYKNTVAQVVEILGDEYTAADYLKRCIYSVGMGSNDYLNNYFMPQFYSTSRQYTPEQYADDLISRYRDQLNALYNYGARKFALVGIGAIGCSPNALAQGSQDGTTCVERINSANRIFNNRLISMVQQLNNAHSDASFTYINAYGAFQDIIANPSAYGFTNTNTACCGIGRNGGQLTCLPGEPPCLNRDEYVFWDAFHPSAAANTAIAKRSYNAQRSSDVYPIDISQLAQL

Compound: CCCCCCCC/C=C\CCCCCCCC(=O)OC[C@H](COP(=O)(O)O)OC(=O)CCCCCCC/C=C\CCCCCCCC [PtdOH]
- liposome co-sedimentation with anti-His Western blot; protein-lipid overlay [1]: when PtdOH was included in the liposome, PLAFP bound
- liposome co-sedimentation with anti-His Western blot; protein-lipid overlay [2]: PIG-P binds to liposomes containing PtdOH or PtdSer
- liposome co-sedimentation with anti-His Western blot; protein-lipid overlay [3]: the GDSL-lipase does associate with PtdOH-containing liposomes (Figure 1G)
